Test results reported in ChEMBL document CHEMBL3871282, “Neo-tanshinlactone D-ring modified novel analogues induce apoptosis in human breast cancer cell via DNA damage” (Bioorg Med Chem, 2017).
Calls of active or inactive are those of the source. No cut-off for these calls is given here.

Key:
[1] = Cytotoxicity against human SKBR3 ER negative, PR negative,HER2 positive cells assessed as cell growth inhibition after 24 hrs by MTT assay; assay type: functional, cell-based; conditions: SK-BR-3, 24 h
[2] = Cytotoxicity against human HeLa cells assessed as cell growth inhibition after 24 hrs by MTT assay; assay type: functional, cell-based
MCF7 [3] = assay: Induction of DNA double strand breaks in human MCF7 cells assessed as H2AX phosphorylation at near IC50 after 24 hrs by Western blot analysis; assay type: cell-based
MCF7 [4] = assay: Binding affinity to DNA in human MCF7 cells assessed as formation of DNA double strand breaks after 24 hrs by alkaline comet assay; assay type: cell-based
MCF7 [5] = assay: Induction of DNA double strand breaks in human MCF7 cells assessed as increase in H2AX to gamma-H2AX ratio at near IC50 after 24 hrs by DAPI staining-based immunocytochemistry analysis relative to control; assay type: cell-based
MCF7 [6] = assay: Induction of DNA damage-mediated apoptosis in human MCF7 cells assessed as cleaved PARP after 24 hrs by immunoblot analysis; assay type: cell-based
MCF7 [7] = assay: Induction of DNA damage-mediated apoptosis in human MCF7 cells assessed as increase in Bax/Bcl2 ratio after 24 hrs by immunoblot analysis; assay type: cell-based
Escherichia coli = assay: Induction of Escherichia coli supercoiled pBR322 DNA cleavage assessed as increase in open circular form of DNA band after 3 hrs by ethidium bromide staining based agarose gel electrophoresis method
Bos taurus [8] = species on record: Bos taurus; assay: Binding affinity to calf thymus DNA assessed hyperchromic shift at 260 nm up to 1:1 compound to DNA ratio measured by UV-Vis spectrophotometric analysis
[9] = Cell cycle arrest in human MCF7 cells assessed as S phase at 8 nM after 24 hrs by propidium iodide staining based FACS analysis (reference value: 27.5%); assay type: functional
[10] = Cytotoxicity against human HaCaT cells assessed as cell growth inhibition after 24 hrs by MTT assay; assay type: toxicity, cell-based
MCF7 [11] = assay: Induction of DNA damage-mediated apoptosis in human MCF7 cells assessed as Rb hypo-phosphorylation after 24 hrs by immunoblot analysis; assay type: cell-based
MCF7 [12] = assay: Induction of DNA double strand breaks in human MCF7 cells assessed as activation of phosphorylated ATM at ser1981 residue after 24 hrs immunoblot analysis; assay type: cell-based
MCF7 [13] = assay: Induction of DNA double strand breaks in human MCF7 cells assessed as increase in H2AX to gamma-H2AX ratio at near IC50 after 24 hrs by Western blot analysis relative to control; assay type: cell-based
MCF7 [14] = assay: Induction of DNA damage-mediated apoptosis in human MCF7 cells assessed as increase in Rb-E2F1 interaction at 8 to 16 nM after 24 hrs by co-immunoprecipitation analysis; assay type: cell-based
MCF7 [15] = assay: Induction of apoptosis in human MCF7 cells assessed as early apoptotic cells at 12 nM after 24 hrs by Annexin V-FITC/propidium iodide-dual staining based FACS analysis (reference value: 2.3%); assay type: functional
MCF7 [16] = assay: Disruption of mitochondrial membrane potential in human MCF7 cells assessed as decrease in red/green fluorescence ratio at 8 to 16 nM after 24 hrs by JC1-staining based fluorescent microscopic analysis; assay type: functional, cell-based
[17] = Cytotoxicity against human HepG2 cells assessed as cell growth inhibition after 24 hrs by MTT assay; assay type: functional, cell-based; conditions: HepG2, 24 h
MCF7 [18] = assay: Induction of DNA double strand breaks in human MCF7 cells assessed as activation of phosphorylated Chk2 at Thr68 residue after 24 hrs immunoblot analysis; assay type: cell-based
[19] = Cell cycle arrest in human MCF7 cells assessed as G0/G1 phase at 12 nM after 24 hrs by propidium iodide staining based FACS analysis (reference value: 43.9%); assay type: functional
MCF7 [20] = assay: Binding affinity to DNA in human MCF7 cells assessed as formation of DNA double strand breaks after 24 hrs by neutral comet assay; assay type: cell-based
MCF7 [21] = assay: Induction of DNA damage-mediated apoptosis in human MCF7 cells assessed as phosphorylation of p53 at Ser-15 residue after 24 hrs by DAPI staining based immunocytochemistry analysis; assay type: cell-based
Bos taurus [22] = species on record: Bos taurus; assay: Binding affinity to calf thymus DNA assessed as decrease in […] at 50 uM measured at 260 nm by UV-Vis spectrophotometric analysis
MCF7 [23] = assay: Induction of DNA double strand breaks in human MCF7 cells assessed as activation of phosphorylated p53 at ser15 residue after 24 hrs immunoblot analysis; assay type: cell-based
MCF7 [24] = assay: Induction of DNA damage-mediated apoptosis in human MCF7 cells assessed as activation of p38 at 12 nM up to 4 hrs by immunoblot analysis; assay type: cell-based
MCF7 [25] = assay: Induction of DNA damage-mediated apoptosis in human MCF7 cells assessed as activation of ERK1/2 at 12 nM up to 6 hrs by immunoblot analysis; assay type: cell-based
MCF7 [26] = assay: Induction of apoptosis in human MCF7 cells assessed as late apoptotic cells at 8 nM after 24 hrs by Annexin V-FITC/propidium iodide-dual staining based FACS analysis (reference value: 0.1%); assay type: functional
[27] = Cell cycle arrest in human MCF7 cells assessed as G2/M phase at 12 nM after 24 hrs by propidium iodide staining based FACS analysis (reference value: 28.3%); assay type: functional
MCF7 [28] = assay: Induction of DNA damage-mediated apoptosis in human MCF7 cells assessed as increase in cleaved caspase-3 level at 8 to 16 nM after 24 hrs by DAPI staining based immunocytochemistry analysis; assay type: cell-based
MCF7 [29] = assay: Induction of DNA damage-mediated apoptosis in human MCF7 cells assessed as decrease in HDAC1 expression in cytoplasmic fraction at 8 to 16 nM after 24 hrs by immunoblot analysis; assay type: cell-based
MCF7 [30] = assay: Induction of DNA damage-mediated apoptosis in human MCF7 cells assessed as increase in HDAC3 expression in cytoplasmic fraction at 8 to 16 nM after 24 hrs by immunoblot analysis; assay type: cell-based
[31] = Cell cycle arrest in human MCF7 cells assessed as S phase at 12 nM after 24 hrs by propidium iodide staining based FACS analysis (reference value: 27.5%); assay type: functional
MCF7 [32] = assay: Binding affinity to DNA in human MCF7 cells assessed as formation of nuclear DNA double strand breaks at 12 nM after 24 hrs by DAPI-staining based fluorescence microscopic analysis; assay type: cell-based
MCF7 [33] = assay: Induction of DNA damage-mediated apoptosis in human MCF7 cells assessed as deactivation of Akt at 12 nM after 2 hrs by immunoblot analysis; assay type: cell-based
MCF7 [34] = assay: Induction of DNA damage-mediated apoptosis in human MCF7 cells assessed as downregulation of HDAC2 after 24 hrs by DAPI staining based immunocytochemistry analysis; assay type: cell-based
MCF7 [35] = assay: Induction of DNA double strand breaks in human MCF7 cells assessed as gamma-H2AX foci at near IC50 after 24 hrs by DAPI staining based immunofluorescence assay; assay type: cell-based
Bos taurus [36] = species on record: Bos taurus; assay: Binding affinity to calf thymus DNA assessed as DNA positive band formation at 1:1 compound to DNA ratio by circular dichroism method
[37] = Cell cycle arrest in human MCF7 cells assessed as G0/G1 phase at 8 nM after 24 hrs by propidium iodide staining based FACS analysis (reference value: 43.9%); assay type: functional
MCF7 [38] = assay: Induction of apoptosis in human MCF7 cells at IC50 after 24 hrs by Annexin V/7AAD-dual staining based fluorescent microscopic analysis; assay type: functional

For `O=c1cc(OCc2ccccc2)c2ccc3ccccc3c2[nH]1`, the IC50 [1] was 0.0237 µM, the IC50 [2] was 52.1 µM and the Activity (MCF7 [3]) was “Active”. The Activity (MCF7 [4]) was “Dose-dependent effect”, the fold change (FC) (MCF7 [5]) was 11 and the Activity (MCF7 [6]) was “Dose-dependent effect”. The Activity (MCF7 [7]) was “Dose-dependent effect”, the Activity (Escherichia coli) was “Dose-dependent effect” and the Activity (Bos taurus [8]) was “Active”. The Activity [9] was 25.8%, the IC50 at 24 h [10] was > 100 µM and the Activity (MCF7 [11]) was “Dose-dependent effect”. The Activity (MCF7 [12]) was “Dose-dependent effect”, the fold change (FC) (MCF7 [13]) was 6.3 and the Activity (MCF7 [14]) was “Active”. The Activity (MCF7 [15]) was 39%, the Activity (MCF7 [16]) was “Active” and the IC50 [17] was 37 µM. The Activity (MCF7 [18]) was “Dose-dependent effect”, the Activity [19] was 58.1% and the Activity (MCF7 [20]) was “Dose-dependent effect”. The Activity (MCF7 [21]) was “Dose-dependent effect”, the Activity (Bos taurus [22]) was “Active” and the Activity (MCF7 [23]) was “Dose-dependent effect”. The Activity (MCF7 [24]) was “Active”, the Activity (MCF7 [25]) was “Active” and the Activity (MCF7 [26]) was 7.2%. For the same compound, the Activity [27] was 16.2%, the Activity (MCF7 [28]) was “Active” and the Activity (MCF7 [29]) was “Active”. The Activity (MCF7 [30]) was “Active”, the Activity [31] was 25.1% and the Activity (MCF7 [32]) was “Active”. The Activity (MCF7 [33]) was “Active”, the Activity (MCF7 [34]) was “Dose-dependent effect” and the Activity (MCF7 [35]) was 29.9%. For the same compound, the Activity (Bos taurus [36]) was “Active”, the Activity [37] was 55.1% and the Activity (MCF7 [38]) was 44.78%.
